How the values were obtained:
Type in all cases: cell-based
[1] = system: Phaffia rhodozyma ATCC96594; assay: Effect of the squalene synthase inhibitor on the cell growth of Phaffia rhodozyma (Example 1)
Experimental: Phaffia rhodozyma ATCC96594 (redeposited under the accession No. ATCC 74438 on Apr. 8, 1998 pursuant to the Budapest Treaty) was inoculated into YPD medium (DIFCO, Detroit, U.S.A., 10 mL in tube) and cultivated by shaking at 20° C. for 2 days. 0.5 mL of the culture was inoculated into fresh YPD medium (10 mL in tube) containing 30 g/L of glucose and 0, 0.2, 0.5, 1.0, 2.0, 5.0, 10.0, and 20.0, μg/mL, respectively, of [3-(3-allyl-biphenyl-4-yl-oxy)-propyl]-isopropyl-amine, and cultivated by shaking at 20° C. for 5 days. An aliquot of the culture was withdrawn occasionally during the cultivation, and optical density at 660 nm was measured by using UV-1200 photometer (Shimadzu Corp., Kyoto, Japan) for analysis of the cell growth.

[2] = system: Phaffia rhodozyma ATCC96594; assay: Effect of the squalene synthase inhibitor on astaxanthin production by Phaffia rhodozyma (Example 2); conditions: for Astaxanthin content (relative values): relative to Day 7 without inhibitor = 100
Experimental: Phaffia rhodozyma ATCC96594 (redeposited under the accession No. ATCC 74438 on Apr. 8, 1998 pursuant to the Budapest Treaty) was inoculated into YPD medium as in Example 1 and cultivated by shaking at 20° C. for 2 days. 2.5 ml of the culture were inoculated into fresh YPD medium (50 mL in flask) containing 22 g/L of glucose and 0, 0.5, 1.0, 2.0, and 5.0, μg/mL, respectively, of [3-(3-allyl-biphenyl-4-yloxy)-propyl]-isopropyl-amine, and cultivated by shaking at 20° C. for 7 days. On Day 2 of the cultivation, 50 g/L of glucose was added to the culture. Addition of the inhibitor in the middle of the cultivation was also tested. An aliquot of the culture was withdrawn at Day 4 and Day 7 of the cultivation, and optical density at 660 nm (by using the same method described in Example 1) and astaxanthin content in the culture were measured. For analysis of the content of astaxanthin, the withdrawn broth was mixed with a solvent mixture (ethyl alcohol, hexane and ethyl acetate) and carotenoids were extracted from the cells of Phaffia rhodozyma by vigorous shaking with glass beads. After extraction, disrupted cells and glass beads were removed by centrifugation and the resultant supernatant was analyzed by HPLC for the astaxanthin content. The HPLC conditions used were as follows: [table] A reference sample of astaxanthin was obtained from Hoffmann La-Roche (Basel, Switzerland).

[3] = system: Phaffia rhodozyma ATCC96594; assay: Cell growth of Phaffia rhodozyma during astaxanthin production culture (Example 2)
Experimental: An aliquot of the culture was withdrawn occasionally during the cultivation, and optical density at 660 nm was measured by using UV-1200 photometer (Shimadzu Corp., Kyoto, Japan) for analysis of the cell growth. Phaffia rhodozyma ATCC96594 (redeposited under the accession No. ATCC 74438 on Apr. 8, 1998 pursuant to the Budapest Treaty) was inoculated into YPD medium as in Example 1 and cultivated by shaking at 20° C. for 2 days. 2.5 ml of the culture were inoculated into fresh YPD medium (50 mL in flask) containing 22 g/L of glucose and 0, 0.5, 1.0, 2.0, and 5.0, μg/mL, respectively, of [3-(3-allyl-biphenyl-4-yloxy)-propyl]-isopropyl-amine, and cultivated by shaking at 20° C. for 7 days. On Day 2 of the cultivation, 50 g/L of glucose was added to the culture. Addition of the inhibitor in the middle of the cultivation was also tested. An aliquot of the culture was withdrawn at Day 4 and Day 7 of the cultivation, and optical density at 660 nm (by using the same method described in Example 1) and astaxanthin content in the culture were measured.

[4] = 5.0 μg/mL inhibitor added at Day 2 of the cultivation, Day 4
[5] = 5.0 μg/mL inhibitor added at Day 2 of the cultivation, Day 7
[6] = 5.0 μg/mL inhibitor from start, Day 4
[7] = 5.0 μg/mL inhibitor from start, Day 7

## C=CCc1cc(-c2ccccc2)ccc1OCCCNC(C)C [[3-(3-allyl-biphenyl-4-yloxy)-propyl]-isopropyl-amine]
[1]; 0.2 μg/mL inhibitor, Day 1
  Cell growth (OD at 660 nm): 4.5
[1]; 0.2 μg/mL inhibitor, Day 2
  Cell growth (OD at 660 nm): 16.7
[1]; 0.2 μg/mL inhibitor, Day 3
  Cell growth (OD at 660 nm): 20.1
[1]; 0.2 μg/mL inhibitor, Day 5
  Cell growth (OD at 660 nm): 19.3
[1]; 0.5 μg/mL inhibitor, Day 1
  Cell growth (OD at 660 nm): 4.4
[1]; 0.5 μg/mL inhibitor, Day 2
  Cell growth (OD at 660 nm): 15.6
[1]; 0.5 μg/mL inhibitor, Day 3
  Cell growth (OD at 660 nm): 20.4
[1]; 0.5 μg/mL inhibitor, Day 5
  Cell growth (OD at 660 nm): 19.4
[1]; 1.0 μg/mL inhibitor, Day 1
  Cell growth (OD at 660 nm): 4.0
[1]; 1.0 μg/mL inhibitor, Day 2
  Cell growth (OD at 660 nm): 15.0
[1]; 1.0 μg/mL inhibitor, Day 3
  Cell growth (OD at 660 nm): 20.0
[1]; 1.0 μg/mL inhibitor, Day 5
  Cell growth (OD at 660 nm): 19.5
[1]; 2.0 μg/mL inhibitor, Day 1
  Cell growth (OD at 660 nm): 3.6
[1]; 2.0 μg/mL inhibitor, Day 2
  Cell growth (OD at 660 nm): 15.0
[1]; 2.0 μg/mL inhibitor, Day 3
  Cell growth (OD at 660 nm): 19.5
[1]; 2.0 μg/mL inhibitor, Day 5
  Cell growth (OD at 660 nm): 19.0
[1]; 5.0 μg/mL inhibitor, Day 1
  Cell growth (OD at 660 nm): 2.9
[1]; 5.0 μg/mL inhibitor, Day 2
  Cell growth (OD at 660 nm): 12.3
[1]; 5.0 μg/mL inhibitor, Day 3
  Cell growth (OD at 660 nm): 18.8
[1]; 5.0 μg/mL inhibitor, Day 5
  Cell growth (OD at 660 nm): 18.0
[1]; 10.0 μg/mL inhibitor, Day 1
  Cell growth (OD at 660 nm): 2.0
[1]; 10.0 μg/mL inhibitor, Day 2
  Cell growth (OD at 660 nm): 5.6
[1]; 10.0 μg/mL inhibitor, Day 3
  Cell growth (OD at 660 nm): 14.7
[1]; 10.0 μg/mL inhibitor, Day 5
  Cell growth (OD at 660 nm): 16.9
[1]; 20.0 μg/mL inhibitor, Day 1
  Cell growth (OD at 660 nm): 1.2
[1]; 20.0 μg/mL inhibitor, Day 2
  Cell growth (OD at 660 nm): 1.7
[1]; 20.0 μg/mL inhibitor, Day 3
  Cell growth (OD at 660 nm): 2.7
[1]; 20.0 μg/mL inhibitor, Day 5
  Cell growth (OD at 660 nm): 7.0
[1]; Phaffia rhodozyma, ATCC96594, 48 h, 5.0 μg/mL inhibitor, Day 2
  inhibition at 5 µg/mL: ~23%
[1]; concentration not higher than 2.0 μg/mL
  cell growth (effect in words): not affected
[2]; 0.5 μg/mL inhibitor, Day 4
  Astaxanthin content (relative values): 75
[2]; 0.5 μg/mL inhibitor, Day 7
  Astaxanthin content (relative values): 114
[2]; 1.0 μg/mL inhibitor, Day 4
  Astaxanthin content (relative values): 77
[2]; 1.0 μg/mL inhibitor, Day 7
  Astaxanthin content (relative values): 118
[2]; 2.0 μg/mL inhibitor, Day 4
  Astaxanthin content (relative values): 75
[2]; 2.0 μg/mL inhibitor, Day 7
  Astaxanthin content (relative values): 125
[2]; [4]
  Astaxanthin content (relative values): 84
[2]; [5]
  Astaxanthin content (relative values): 131
[2]; [6]
  Astaxanthin content (relative values): 67
[2]; [7]
  Astaxanthin content (relative values): 129
[2]; all conditions tested (0.5-5.0 μg/mL, from start or added at Day 2)
  Astaxanthin production (effect in words): enhanced
[3]; 0.5 μg/mL inhibitor, Day 4
  Cell growth (OD at 660 nm): 39.6
[3]; 0.5 μg/mL inhibitor, Day 7
  Cell growth (OD at 660 nm): 39.8
[3]; 1.0 μg/mL inhibitor, Day 4
  Cell growth (OD at 660 nm): 40.3
[3]; 1.0 μg/mL inhibitor, Day 7
  Cell growth (OD at 660 nm): 39.8
[3]; 2.0 μg/mL inhibitor, Day 4
  Cell growth (OD at 660 nm): 38.2
[3]; 2.0 μg/mL inhibitor, Day 7
  Cell growth (OD at 660 nm): 39.3
[3]; [4]
  Cell growth (OD at 660 nm): 37.4
[3]; [5]
  Cell growth (OD at 660 nm): 37.9
[3]; [6]
  Cell growth (OD at 660 nm): 40.2
[3]; [7]
  Cell growth (OD at 660 nm): 39.5
